The text below walks through data of patent US10034462B2, “Animal model of nash-induced hepatocellular carcinoma and methods for developing specific therapeutics” (THE REGENTS OF THE UNIVERSITY OF CALIFORNIA, priority 2015, dated 2018).

This test concerns WT HcPC-transplanted MUP-uPA mice. Put plainly: Effect of TNF antagonist on HFD-induced acceleration of tumor growth in HcPC-transplanted MUP-uPA mice. The test is classed as in vivo, mouse. Particulars: HFD for 5 months; 5 mg/kg i.p. three times a week during the last 7 weeks, vs vehicle. An excerpt:
FIGS. 13A-13J are pictorial and graphical diagrams showing analyses of HcPC transplanted MUP-uPA mice. […] Data are means±S.D. (n=3 per group). […] FIGS. 13C-13F show no differences in the severity of NASH and TNF expression in the background liver of MUP-uPA mice transplanted with either WT and Tnfr1^−/− HcPC. Body weight (FIG. 13C), serum ALT (FIG. 13D), expression of TNF mRNA in non-tumor tissues (FIG. 13E), liver steatosis (FIG. 13F) and fibrosis (FIG. 13G) in MUP-uPA mice transplanted with either WT or Tnfr1^−/− HcPC and kept on LFD or HFD are shown (scale bar=100 μm). Data are expressed as means±S.D. (n=10-11 per group). *p<0.05. […] 5 mg/kg etanercept or vehicle control was i.p. injected three times a week during the last 7 weeks. Representative images of livers and maximal tumor sizes are shown. Data are expressed as means±S.E.M. (control, n=10; etanercept, n=12). […] HcPC-transplanted Tnfr1^−/−/MUP-uPA mice were divided into two groups that were fed with either LFD or HFD, and 5 months later tumorigenesis was assessed. Representative images of livers and maximal tumor sizes are shown. Data are expressed as means±S.E.M. (n=10 per group).
DEN (Sigma) was i.p. injected into male mice (25 mg/kg) on postnatal day 14. After 5 months, HcPCs were isolated as described and transplanted into 4 weeks old MUP-uPA (He et al., 2013). […]

For the substance Etanercept, the “HCC growth (maximal tumor size)” value was “significantly suppressed”.
